Here are results for 17 molecules from US11479802B2, “Assays for screening activity of modulators of members of the hydroxy steroid (17-beta) dehydrogenase (HSD17B) family” (Regeneron Pharmaceuticals, Inc., priority 2017, dated 2022).

Structures can show the parent of a compound that is named as a salt.

The experiment has as its target T1, human HSD17B13 (Homo sapiens, UniProt Q7Z5P4).
T1 sequence (Q7Z5P4 20-300): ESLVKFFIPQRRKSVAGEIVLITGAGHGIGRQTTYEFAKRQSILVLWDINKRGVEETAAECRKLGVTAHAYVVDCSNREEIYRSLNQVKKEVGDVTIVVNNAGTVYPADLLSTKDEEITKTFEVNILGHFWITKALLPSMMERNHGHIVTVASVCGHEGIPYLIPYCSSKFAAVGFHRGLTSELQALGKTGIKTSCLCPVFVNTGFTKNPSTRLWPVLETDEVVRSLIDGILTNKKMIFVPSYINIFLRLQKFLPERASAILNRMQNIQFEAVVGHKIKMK
Put plainly: Substrate screening of steroid and bioactive lipid libraries against purified recombinant HSD17B13 (NADH-linked luciferase assay). It is filed as biochemical. Conditions: for HSD17B13 Enzymatic Activity Relative Light Units: 500 μM NAD+, 100 ng enzyme, 3 hours at 23° C.; for HSD17B13 Enzymatic Activity Percent Estradiol Control: normalized to 50 μM estradiol after subtraction of 5% DMSO. The method in brief: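 Substrates (bioactive lipids 5 μM, steroids 50 μM; 5% DMSO) tested with 500 μM NAD+ and 100 ng recombinant human HSD17B13 in 0.2 M Tris-HCl pH 7.5, 3 h, 23° C. Luminescent NADH detection followed 1 h later; RLU normalized to estradiol (50 μM, 100%) and DMSO (0%) controls.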

[1] abbreviates: Bioactive Lipid Library, 5 μM bioactive lipid (Estradiol Control 50 μM).
[2] abbreviates: Bioactive Lipid Library, 5 μM bioactive lipid.

“Ptdlns-(3)-P1 (1,2-dipalmitoyl) (ammonium salt)”: the “HSD17B13 Enzymatic Activity Relative Light Units” value under setting [1] was 15520 RLU. Further, the “HSD17B13 Enzymatic Activity Percent Estradiol Control” value under setting [2] is −23.38%.

Take `C[C@@H](O)CCC[C@@H](O)/C=C/[C@H]1[C@H](O)CC(=O)[C@@H]1CCCCCCC(=O)O` [15(R),19(R)-hydroxy Prostaglandin E1]: the “HSD17B13 Enzymatic Activity Relative Light Units” value under setting [1] was 333200 RLU. Also, the “HSD17B13 Enzymatic Activity Percent Estradiol Control” value under setting [2] is reported as 3.96%.

`CCC(=O)O[C@H]1CC[C@H]2[C@@H]3CC[C@H]4CC(=O)[C@H](C)C[C@]4(C)[C@H]3CC[C@]12C` [Dromostanolone proprionate]: for the setting “Steroid Library, 50 μM steroid”, the “HSD17B13 Enzymatic Activity Relative Light Units” value is on record as 212040 RLU and the “HSD17B13 Enzymatic Activity Percent Estradiol Control” value stood at 0.90%.

In the case of `CC/C=C\C[C@H](O)/C=C/C=C\C/C=C\C/C=C\CCCC(=O)O` [15(S)-HEPE], the “HSD17B13 Enzymatic Activity Relative Light Units” value under setting [1] is 505240 RLU. The “HSD17B13 Enzymatic Activity Percent Estradiol Control” value under setting [2] was determined as 16.24%.

Take `CCCCCC(O)/C=C/C=C\CCCCCCCC(=O)O` (racemic) [(±)13-HODE]: the “HSD17B13 Enzymatic Activity Relative Light Units” value under setting [1] is reported as 954080 RLU. In addition, the “HSD17B13 Enzymatic Activity Percent Estradiol Control” value under setting [2] is recorded as 49.62%.

On to `O=C(O)CCCC=C1CC2CC(O)C(C#CC(O)C3CCCCC3)C2C1` (stereo not shown) [13,14-dehydro-15-cyclohexyl Carbaprostacyclin], for which the “HSD17B13 Enzymatic Activity Relative Light Units” value under setting [1] is recorded as 356360 RLU. In addition, the “HSD17B13 Enzymatic Activity Percent Estradiol Control” value under setting [2] was found to be 5.79%.

Consider `CC[C@H](CC[C@@H](C)[C@H]1CC[C@H]2[C@@H]3CC=C4C[C@@H](O)CC[C@]4(C)[C@H]3CC[C@]12C)C(C)C` [Beta-sitosterol], for which, under “Steroid Library, 50 μM steroid”, the “HSD17B13 Enzymatic Activity Relative Light Units” value is 168880 RLU and the “HSD17B13 Enzymatic Activity Percent Estradiol Control” value stood at 0.14%.

As for `CCCCC[C@H](O)/C=C/[C@@H]1[C@@H](CC(=O)CCC(=O)O)[C@@H](O)C[C@H]1O` [2,3-dinor-6-keto Prostaglandin F1α (sodium salt)], the “HSD17B13 Enzymatic Activity Relative Light Units” value under setting [1] was determined as 341800 RLU. Moreover, under setting [2], the “HSD17B13 Enzymatic Activity Percent Estradiol Control” value amounted to 4.64%.

On to `O=C(O)CCCC/C=C\C[C@@H](O)/C=C/C=C/C=C\[C@@H](O)CCCC(=O)O` [20-carboxy Leukotriene B4], for which, under setting [1], the “HSD17B13 Enzymatic Activity Relative Light Units” value is on record as 400440 RLU. Further, under setting [2], the “HSD17B13 Enzymatic Activity Percent Estradiol Control” value was 9.28%.

Regarding “Ptdlns-(4)-P1 (1,2-dipalmitoyl) (ammonium salt)”, the “HSD17B13 Enzymatic Activity Relative Light Units” value under setting [1] is 123240 RLU. Moreover, under setting [2], the “HSD17B13 Enzymatic Activity Percent Estradiol Control” value is recorded as −15.24%.

Regarding `CC/C=C\C/C=C\C=C\C(O)C/C=C\C/C=C\CCCC(=O)O` (racemic) [(±)11-HEPE], the “HSD17B13 Enzymatic Activity Relative Light Units” value under setting [1] came out at 791920 RLU. Moreover, the “HSD17B13 Enzymatic Activity Percent Estradiol Control” value under setting [2] came to 37.56%.

As to `CCCCC[C@H](O)/C=C/C=C\C/C=C\C=C\[C@@H](O)CCCC(=O)O` [5(S),15(S)-DiHETE], under setting [1], the “HSD17B13 Enzymatic Activity Relative Light Units” value is 486600 RLU. In addition, the “HSD17B13 Enzymatic Activity Percent Estradiol Control” value under setting [2] turned out to be 14.86%.

Consider `CCCCC[C@H](O)/C=C/C=C\C/C=C\C/C=C\CCCC(=O)O` [15(S)-HETE], for which the “HSD17B13 Enzymatic Activity Relative Light Units” value under setting [1] turned out to be 1107240 RLU. In addition, the “HSD17B13 Enzymatic Activity Percent Estradiol Control” value under setting [2] stood at 24.49%.

Regarding `CCCCCC(O)C=CC1OC(=O)CC(O)C1CC=CCCCC(=O)O` (stereo not shown) [11-dehydro Thromboxane B2], the “HSD17B13 Enzymatic Activity Relative Light Units” value under setting [1] is reported as 349160 RLU. The “HSD17B13 Enzymatic Activity Percent Estradiol Control” value under setting [2] is 5.22%.

Regarding `CCCCC[C@H](O)/C=C/C=C\C=C\C=C\[C@@H](O)[C@@H](O)CCCC(=O)O` [Lipoxin A4], under setting [1], the “HSD17B13 Enzymatic Activity Relative Light Units” value turned out to be 352680 RLU. Further, the “HSD17B13 Enzymatic Activity Percent Estradiol Control” value under setting [2] is listed as 2.09%.

`CC/C=C\CC(O)C(O)C/C=C\C/C=C\C/C=C\CCCC(=O)O` (racemic) [(±)14(15)-DiHETE]: under setting [1], the “HSD17B13 Enzymatic Activity Relative Light Units” value was 356480 RLU. For the same molecule, the “HSD17B13 Enzymatic Activity Percent Estradiol Control” value under setting [2] is listed as 2.37%.

Regarding `CCCCC[C@H](O)/C=C/[C@H]1[C@H](O)CC(=O)[C@@H]1CCCCC(=O)O` [2,3-dinor Prostaglandin E1], under setting [1], the “HSD17B13 Enzymatic Activity Relative Light Units” value came out at 344240 RLU. For the same molecule, the “HSD17B13 Enzymatic Activity Percent Estradiol Control” value under setting [2] worked out at 4.83%.
